The source of these data is patent publication US9920035B2, “Heterocyclic compounds, medicaments containing said compounds, use thereof and processes for the preparation thereof” (Boehringer Ingelheim International GmbH, priority 2011, dated 2018).

The assay has as its target T1, epithelial sodium channel (ENaC) (Mus musculus, UniProt Q61180+Q9WU38+Q9WU39).
T1 construct: Mouse kidney M-1 cells were cultivated in DMEM containing 5% FCS and 5 μM dexamethasone; endogenous in cells; host or cells: mouse kidney M-1 cells
T1 sequence (Q61180 1-699): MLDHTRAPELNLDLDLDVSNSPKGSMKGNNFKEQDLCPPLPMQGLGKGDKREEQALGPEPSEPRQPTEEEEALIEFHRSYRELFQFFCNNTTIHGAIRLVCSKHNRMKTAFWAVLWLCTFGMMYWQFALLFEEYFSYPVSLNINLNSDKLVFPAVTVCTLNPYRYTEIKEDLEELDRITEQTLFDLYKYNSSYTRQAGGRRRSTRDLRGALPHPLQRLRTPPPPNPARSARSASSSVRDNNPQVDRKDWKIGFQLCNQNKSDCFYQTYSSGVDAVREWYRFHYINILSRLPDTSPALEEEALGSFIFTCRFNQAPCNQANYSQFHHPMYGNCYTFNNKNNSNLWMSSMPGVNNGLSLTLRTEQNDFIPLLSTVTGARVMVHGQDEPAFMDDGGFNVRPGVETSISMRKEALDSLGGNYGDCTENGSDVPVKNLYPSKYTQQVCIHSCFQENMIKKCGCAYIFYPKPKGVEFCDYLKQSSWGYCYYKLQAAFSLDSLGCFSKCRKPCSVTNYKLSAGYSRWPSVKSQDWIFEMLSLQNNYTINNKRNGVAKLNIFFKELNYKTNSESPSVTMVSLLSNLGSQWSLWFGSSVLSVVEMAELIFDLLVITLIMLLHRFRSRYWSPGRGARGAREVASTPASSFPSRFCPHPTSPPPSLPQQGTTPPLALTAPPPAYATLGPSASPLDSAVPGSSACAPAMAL
T1 sequence (Q9WU38 1-638): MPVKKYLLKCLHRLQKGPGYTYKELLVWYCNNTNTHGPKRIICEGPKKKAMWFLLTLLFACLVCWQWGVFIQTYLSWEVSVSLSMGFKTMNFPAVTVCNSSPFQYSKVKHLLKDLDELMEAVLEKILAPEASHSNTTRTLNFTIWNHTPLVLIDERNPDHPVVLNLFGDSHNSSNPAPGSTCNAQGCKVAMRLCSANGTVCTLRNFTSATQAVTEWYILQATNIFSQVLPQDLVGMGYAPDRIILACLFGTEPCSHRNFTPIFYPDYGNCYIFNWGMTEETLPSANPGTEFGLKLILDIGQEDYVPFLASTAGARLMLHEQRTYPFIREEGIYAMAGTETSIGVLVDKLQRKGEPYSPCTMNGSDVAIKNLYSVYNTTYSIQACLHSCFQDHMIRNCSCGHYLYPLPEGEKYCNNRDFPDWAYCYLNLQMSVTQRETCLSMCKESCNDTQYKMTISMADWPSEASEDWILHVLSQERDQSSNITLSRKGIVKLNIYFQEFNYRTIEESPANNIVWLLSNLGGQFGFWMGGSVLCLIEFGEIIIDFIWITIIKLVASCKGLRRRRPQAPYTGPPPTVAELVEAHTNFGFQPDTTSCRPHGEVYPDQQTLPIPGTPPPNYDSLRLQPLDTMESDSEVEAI
T1 sequence (Q9WU39 1-655): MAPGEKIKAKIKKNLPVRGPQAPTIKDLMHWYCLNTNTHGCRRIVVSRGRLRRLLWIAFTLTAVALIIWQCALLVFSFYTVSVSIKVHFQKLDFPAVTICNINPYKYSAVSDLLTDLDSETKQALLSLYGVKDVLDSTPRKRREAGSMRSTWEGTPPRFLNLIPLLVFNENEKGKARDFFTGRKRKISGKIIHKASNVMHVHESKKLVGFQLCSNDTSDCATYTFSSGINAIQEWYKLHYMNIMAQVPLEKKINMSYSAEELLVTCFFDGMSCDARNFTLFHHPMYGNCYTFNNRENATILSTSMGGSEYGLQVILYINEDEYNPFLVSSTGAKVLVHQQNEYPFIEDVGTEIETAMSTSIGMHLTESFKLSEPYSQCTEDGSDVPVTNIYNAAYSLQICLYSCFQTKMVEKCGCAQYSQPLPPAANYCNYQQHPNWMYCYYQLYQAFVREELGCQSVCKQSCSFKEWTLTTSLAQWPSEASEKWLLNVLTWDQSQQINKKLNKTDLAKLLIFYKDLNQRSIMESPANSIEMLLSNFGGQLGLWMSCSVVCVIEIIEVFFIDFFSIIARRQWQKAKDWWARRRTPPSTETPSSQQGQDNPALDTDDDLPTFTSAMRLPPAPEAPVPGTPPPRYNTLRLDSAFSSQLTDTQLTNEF
The experiment in a line: Ussing chamber: inhibition of amiloride sensitive short circuit current (I_sc) in M-1 cells. It counts as cell-based. The note with it: Mouse kidney M-1 cells on transwell filters, Ussing chamber at 37° C., compound added to the apical solution. The procedure: Mouse kidney M-1 cells were cultivated in DMEM containing 5% FCS and 5 μM dexamethasone for 10 to 12 days on polyester transwell filters. Filters were inserted into a teflon-coated well-plate which fit into the in-house ussing chamber system. Prior to measurement the medium of M-1 cells was replaced with Caco-2 transport buffer (Invitrogen, Germany). During measurements, the Ussing chamber temperature was kept at 37° C. Short circuit currents (I_sc) were measured in the voltage-clamp mode using an in-house built amplifier (Boehringer Ingelheim, Biberach) with the software package Lab View for data acquisition and analysis. The transepithelial electrical resistance (TEER) was determined by the application of voltage steps of ±5 mV every 5 sec. Compounds were administered at a final concentration of 3 μM or at increasing concentrations (1-3-10 μM) to the apical solution. At the end of each experiment the amiloride sensitive I_SC was measured by adding 3 μM amiloride to the apical compartment. Results are expressed as inhibition in percent of the amiloride effect or as IC50. Results are listed in tables 1 to 5 and further examples listed above.
For `NC(=NC(=O)c1nc(Cl)c(N)nc1N)NCC1(CCc2ccccc2)CCN(Cc2ccccc2)CC1` [Example 1.6], the half-inhibitory concentration (IC50) (in general, the concentration needed to halve the response being measured) came to 40 nM.

`NCCCCC(=O)N1CCC(CNC(N)=NC(=O)c2nc(Cl)c(N)nc2N)(Cc2ccccc2)CC1` [Example 2.8] registered an IC50 of 61 nM. `NC(=NC(=O)c1nc(Cl)c(N)nc1N)NCC1(CCc2ccccc2)CCN(C(=O)CCC(=O)O)CC1` [Example 3.1] returned a 50% inhibitory concentration (IC50) of 40 nM. As to `NCCNC(=O)N1CCC(CNC(N)=NC(=O)c2nc(Cl)c(N)nc2N)(Cc2ccccc2)CC1` [Example 2.12], the IC50 came out at 17 nM. The compound `CC(C)(C)OC(=O)NCCC(=O)N1CCC(CCc2ccccc2)(CNC(N)=NC(=O)c2nc(Cl)c(N)nc2N)CC1` [Example 1.22] yielded a half-inhibitory concentration (IC50) of 37 nM.

`NCCCNC(=O)N1CCC(CNC(N)=NC(=O)c2nc(Cl)c(N)nc2N)(Cc2ccccc2)CC1` [Example 2.13]: it took 25 nM to reach half-maximal inhibition (IC50). For `CC(C)NC(=O)N1CCC(CNC(N)=NC(=O)c2nc(Cl)c(N)nc2N)(Cc2ccccc2)CC1` [Example 1.8] the value was 17 nM. For `CC(C)NC(=O)N1CCC(CNC(N)=NC(=O)c2nc(Cl)c(N)nc2N)(c2ccccc2)CC1` [Example 1.43] the value was 41 nM; for `CC(C)NC(=O)N1CCC(CNC(N)=NC(=O)c2nc(Cl)c(N)nc2N)(c2ccc3c(c2)OCO3)CC1` [Example 1.44], 46 nM; for `NC(=NC(=O)c1nc(Cl)c(N)nc1N)NCC1(CCc2ccccc2)CCN(C(=O)NCC(=O)O)CC1` [Example 3.3], 10.1 nM. For `CN(C)CCCNC(=O)N1CCC(CNC(N)=NC(=O)c2nc(Cl)c(N)nc2N)(Cc2ccccc2)CC1` [Example 1.38] the value was 42 nM. Take `COC(=O)CN1CCC(CCc2ccccc2)(CNC(N)=NC(=O)c2nc(Cl)c(N)nc2N)CC1` [Example 1.16, {4-[N′-(3,5-diamino-6-chloro-pyrazine-2-carbonyl)guanidinomethyl]-4-phenethyl-piperidin-1-yl}-acetic acid methyl ester]: inhibition was half-maximal at 2 nM (IC50). In turn, `CC(C)(C)OC(=O)NCCCN1CCC(CNC(N)=NC(=O)c2nc(Cl)c(N)nc2N)(Cc2ccccc2)CC1` [Example 1.37] yielded an IC50 of 64 nM. `CN1CCC(CCc2ccccc2)(CNC(N)=NC(=O)c2nc(Cl)c(N)nc2N)CC1` [Example 1.3] displayed a half-maximal inhibitory concentration (IC50) of 33 nM.

As to `NC(=O)N1CCC(CCc2ccccc2)(CNC(N)=NC(=O)c2nc(Cl)c(N)nc2N)CC1` [Example 1.4], the IC50 worked out at 27 nM.

Compound `CCCC(=O)N1CCC(CCc2ccccc2)(CNC(N)=NC(=O)c2nc(Cl)c(N)nc2N)CC1` [Example 1.13] came in with a 50% inhibitory concentration (IC50) of 13 nM. To `CN1CCN(C(=O)N2CCC(CCc3ccccc3)(CN/C(N)=N/C(=O)c3nc(Cl)c(N)nc3N)CC2)CC1` [Example 1.53] belongs 14 nM; to `CN(C)CCCN1CCC(CCc2ccccc2)(CNC(N)=NC(=O)c2nc(Cl)c(N)nc2N)CC1` [Example 1.29], 86 nM.

Turning to `CC(C)(C)OC(=O)NCCCCC(=O)N1CCC(CNC(N)=NC(=O)c2nc(Cl)c(N)nc2N)(Cc2ccccc2)CC1` [Example 1.26], half-maximal inhibition (IC50) was put at 19 nM.

For the compound `CN(C)CCNC(=O)N1CCC(CCc2ccccc2)(CNC(N)=NC(=O)c2nc(Cl)c(N)nc2N)CC1` [Example 1.10], half-maximal inhibition (IC50) was put at 36 nM.

`CC(C)(C)OC(=O)NCCCNC(=O)N1CCC(CNC(N)=NC(=O)c2nc(Cl)c(N)nc2N)(Cc2ccccc2)CC1` [Example 1.36] gave a half-inhibitory concentration (IC50) of 18 nM. `CN(C)CCN1CCC(CNC(N)=NC(=O)c2nc(Cl)c(N)nc2N)(Cc2ccccc2)CC1` [Example 1.41] returned a half-maximal inhibitory concentration (IC50) of 91 nM. To `CC(C)(C)OC(=O)NCC(=O)N1CCC(CNC(N)=NC(=O)c2nc(Cl)c(N)nc2N)(Cc2ccccc2)CC1` [Example 1.24] belongs 27 nM; to `CC(C)NC(=O)N1CCC(CCc2ccccc2)(CNC(N)=NC(=O)c2nc(Cl)c(N)nc2N)CC1` [Example 1.2], 8 nM; to `NCCCN1CCC(CCc2ccccc2)(CNC(N)=NC(=O)c2nc(Cl)c(N)nc2N)CC1` [Example 2.5], 65 nM. Compound `COC(=O)c1ccc(CCC2(CNC(N)=NC(=O)c3nc(Cl)c(N)nc3N)CCN(C(=O)NCC[N+](C)(C)C)CC2)cc1` [Example 5.2] displayed an IC50 of 74 nM. For `C[N+]1(C)CCC(NC(=O)N2CCC(CCc3ccccc3)(CNC(N)=NC(=O)c3nc(Cl)c(N)nc3N)CC2)CC1` [Example 5.5] the value was 52 nM. For `COC(=O)CCC(=O)N1CCC(CCc2ccccc2)(CNC(N)=NC(=O)c2nc(Cl)c(N)nc2N)CC1` [Example 1.14] the value was 20 nM. For `COC(=O)CCC(=O)N1CCC(CCc2ccccc2)(CN/C(N)=N/C(=O)c2nc(Br)c(N)nc2N)CC1` [Example 10, 4-{4-[N′-(3,5-Diamino-6-bromo-pyrazine-2-carbonyl)-guanidinomethyl]-4-phenethyl-piperidin-1-yl}-4-oxo-butyric acid methyl ester] the value was 32 nM; for `CC(C)(C)OC(=O)NCCCN1CCC(CCc2ccccc2)(CNC(N)=NC(=O)c2nc(Cl)c(N)nc2N)CC1` [Example 1.28], 36 nM.

In turn, `CC(C)CC(=O)N1CCC(CCc2ccccc2)(CNC(N)=NC(=O)c2nc(Cl)c(N)nc2N)CC1` [Example 1.11] returned a 50% inhibitory concentration (IC50) of 17 nM. The compound `CC(C)(C)OC(=O)NCCNC(=O)N1CCC(CCc2ccccc2)(CNC(N)=NC(=O)c2nc(Cl)c(N)nc2N)CC1` [Example 1.33] registered an IC50 of 7 nM.

As for `CC(C)(C)OC(=O)NCCCNC(=O)N1CCC(CCc2ccccc2)(CNC(N)=NC(=O)c2nc(Cl)c(N)nc2N)CC1` [Example 1.34], 10 nM corresponded to half-maximal inhibition (IC50).

For `NCCCN1CCC(CNC(N)=NC(=O)c2nc(Cl)c(N)nc2N)(Cc2ccccc2)CC1` [Example 2.14], the IC50 amounted to 120 nM. For `NC(=NC(=O)c1nc(Cl)c(N)nc1N)NCC1(Cc2ccccc2)CCNCC1` [Example 2.11], the IC50 turned out to be 55 nM. To `N=C(N)NCCCCC(=O)N1CCC(CCc2ccccc2)(CNC(N)=NC(=O)c2nc(Cl)c(N)nc2N)CC1` [Example 4.2] belongs 18 nM; to `CC(C)N1CCC(CCc2ccccc2)(CNC(N)=NC(=O)c2nc(Cl)c(N)nc2N)CC1` [Example 1.7], 63 nM. For `NCCC(=O)N1CCC(CNC(N)=NC(=O)c2nc(Cl)c(N)nc2N)(Cc2ccccc2)CC1` [Example 2.9] the value was 93 nM.
